According to US20170190671A1, “BIS(ARYL)CATECHOL DERIVATIVES AS HERBICIDES” (E I DU PONT DE NEMOURS AND COMPANY, priority 2014, published 2017):

Key:
Test in all cases: Test E preemergence
Assay type in all cases: in vivo
Conditions in all cases: scale 0 to 100
[1] = test system: palmer pigweed (Amaranthus palmeri)
How it was run: (§1)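 Visual ratings from 0 = no effect to 100 = complete control, scored against untreated controls after 14 to 21 days in the greenhouse. Compounds, in a non-phytotoxic solvent mix with surfactant, went onto silt loam soil right after sowing (preemergence) or onto 2–18 cm plants at the 1- to 4-leaf stage (postemergence).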

[2] = test system: soybean (Glycine max)
How it was run: as §1

[3] = test system: field bindweed (Convolvulus arvensis)
How it was run: as §1

[4] = test system: corn (Zea mays)
How it was run: as §1

[5] = test system: large (Lg) crabgrass (Digitaria sanguinalis)
How it was run: as §1

[6] = test system: barnyardgrass (Echinochloa crus-galli)
How it was run: as §1

[7] = test system: dayflower (Virginia (VA) dayflower, Commelina virginica)
How it was run: as §1

[8] = test system: morningglory (Ipomoea coccinea)
How it was run: as §1

[9] = test system: Brazilian crabgrass (Digitaria horizontalis)
How it was run: as §1

[10] = test system: velvetleaf (Abutilon theophrasti)
How it was run: as §1

[11] = test system: Surinam grass (Brachiaria decumbens)
How it was run: as §1

[12] = test system: kochia (Kochia scoparia)
How it was run: as §1

[13] = test system: sandbur (southern sandbur, Cenchrus echinatus)
How it was run: as §1

[14] = test system: arrowleaf sida (Sida rhombifolia)
How it was run: as §1

[15] = test system: green foxtail (Setaria viridis)
How it was run: as §1

[16] = test system: hairy beggarticks (Bidens pilosa)
How it was run: as §1

[17] = test system: ragweed (common ragweed, Ambrosia elatior)
How it was run: as §1

[18] = test system: Italian ryegrass (Lolium multiflorum)
How it was run: as §1

[19] = test system: nightshade (eastern black nightshade, Solanum ptycanthum)
How it was run: as §1

[20] = test system: goosegrass (Eleusine indica)
How it was run: as §1

[21] = test system: waterhemp (common waterhemp, Amaranthus rudis)
How it was run: as §1

N#Cc1cccc(Oc2ncc(Cl)cn2)c1Oc1ncc(C(F)(F)F)cn1 [Compound 38, 3-[(5-chloro-2-pyrimidinyl)oxy]-2-[[5-(trifluoromethyl)-2-pyrimidinyl]oxy]-benzonitrile]
75: Plant response rating, Crabgrass, Large ([5]; 31 g ai/ha)
10: Plant response rating, Barnyardgrass ([6]; 31 g ai/ha)
20: Plant response rating, Dayflower, VA ([7]; 62 g ai/ha) | Plant response rating, Velvetleaf ([10]; 16 g ai/ha)
70: Plant response rating, Field Bindweed ([3]; 31 g ai/ha) | Plant response rating, Barnyardgrass ([6]; 62 g ai/ha) | Plant response rating, Ragweed ([17]; 125 g ai/ha)
25: Plant response rating, Ryegrass, Italian ([18]; 31 g ai/ha)
80: Plant response rating, Soybean ([2]; 125 g ai/ha) | Plant response rating, Crabgrass, Brazil ([9]; 16 g ai/ha) | Plant response rating, Kochia ([12]; 16 g ai/ha) | Plant response rating, Sandbur ([13]; 125 g ai/ha) | Plant response rating, Arrowleaf Sida ([14]; 62 g ai/ha) | Plant response rating, Ryegrass, Italian ([18]; 125 g ai/ha)
90: Plant response rating, Barnyardgrass ([6]; 125 g ai/ha) | Plant response rating, Goosegrass ([20]; 62 g ai/ha)
0: Plant response rating, Corn ([4]; 16 g ai/ha) | Plant response rating, Corn ([4]; 31 g ai/ha) | Plant response rating, Barnyardgrass ([6]; 16 g ai/ha) | Plant response rating, Dayflower, VA ([7]; 16 g ai/ha) | Plant response rating, Dayflower, VA ([7]; 31 g ai/ha) | Plant response rating, Morningglory ([8]; 16 g ai/ha) | Plant response rating, Morningglory ([8]; 31 g ai/ha) | Plant response rating, Surinam Grass ([11]; 16 g ai/ha) | Plant response rating, Surinam Grass ([11]; 31 g ai/ha) | Plant response rating, Sandbur ([13]; 16 g ai/ha) | Plant response rating, Sandbur ([13]; 31 g ai/ha) | Plant response rating, Beggarticks ([16]; 16 g ai/ha) | Plant response rating, Beggarticks ([16]; 31 g ai/ha) | Plant response rating, Beggarticks ([16]; 62 g ai/ha) | Plant response rating, Ryegrass, Italian ([18]; 16 g ai/ha)
65: Plant response rating, Field Bindweed ([3]; 125 g ai/ha) | Plant response rating, Velvetleaf ([10]; 31 g ai/ha) | Plant response rating, Ryegrass, Italian ([18]; 62 g ai/ha)
95: Plant response rating, Soybean ([2]; 62 g ai/ha) | Plant response rating, Field Bindweed ([3]; 62 g ai/ha) | Plant response rating, Nightshade ([19]; 31 g ai/ha)
5: Plant response rating, Foxtail, Green ([15]; 16 g ai/ha) | Plant response rating, Nightshade ([19]; 16 g ai/ha)
85: Plant response rating, Velvetleaf ([10]; 62 g ai/ha)
100: Plant response rating, Pigweed, Palmer ([1]; 31 g ai/ha) | Plant response rating, Pigweed, Palmer ([1]; 125 g ai/ha) | Plant response rating, Crabgrass, Large ([5]; 62 g ai/ha) | Plant response rating, Crabgrass, Large ([5]; 125 g ai/ha) | Plant response rating, Crabgrass, Brazil ([9]; 62 g ai/ha) | Plant response rating, Crabgrass, Brazil ([9]; 125 g ai/ha) | Plant response rating, Velvetleaf ([10]; 125 g ai/ha) | Plant response rating, Kochia ([12]; 62 g ai/ha) | Plant response rating, Kochia ([12]; 125 g ai/ha) | Plant response rating, Arrowleaf Sida ([14]; 125 g ai/ha) | Plant response rating, Foxtail, Green ([15]; 62 g ai/ha) | Plant response rating, Foxtail, Green ([15]; 125 g ai/ha) | Plant response rating, Nightshade ([19]; 125 g ai/ha) | Plant response rating, Goosegrass ([20]; 125 g ai/ha) | Plant response rating, Waterhemp ([21]; 125 g ai/ha)
40: Plant response rating, Surinam Grass ([11]; 125 g ai/ha) | Plant response rating, Ragweed ([17]; 16 g ai/ha) | Plant response rating, Ragweed ([17]; 31 g ai/ha)
15: Plant response rating, Soybean ([2]; 16 g ai/ha) | Plant response rating, Soybean ([2]; 31 g ai/ha) | Plant response rating, Surinam Grass ([11]; 62 g ai/ha)
98: Plant response rating, Pigweed, Palmer ([1]; 62 g ai/ha) | Plant response rating, Crabgrass, Brazil ([9]; 31 g ai/ha) | Plant response rating, Kochia ([12]; 31 g ai/ha) | Plant response rating, Nightshade ([19]; 62 g ai/ha) | Plant response rating, Waterhemp ([21]; 31 g ai/ha) | Plant response rating, Waterhemp ([21]; 62 g ai/ha)
50: Plant response rating, Corn ([4]; 125 g ai/ha) | Plant response rating, Crabgrass, Large ([5]; 16 g ai/ha) | Plant response rating, Morningglory ([8]; 62 g ai/ha) | Plant response rating, Arrowleaf Sida ([14]; 31 g ai/ha) | Plant response rating, Goosegrass ([20]; 31 g ai/ha) | Plant response rating, Waterhemp ([21]; 16 g ai/ha)
35: Plant response rating, Field Bindweed ([3]; 16 g ai/ha) | Plant response rating, Corn ([4]; 62 g ai/ha) | Plant response rating, Morningglory ([8]; 125 g ai/ha) | Plant response rating, Sandbur ([13]; 62 g ai/ha) | Plant response rating, Beggarticks ([16]; 125 g ai/ha)
60: Plant response rating, Pigweed, Palmer ([1]; 16 g ai/ha) | Plant response rating, Dayflower, VA ([7]; 125 g ai/ha) | Plant response rating, Arrowleaf Sida ([14]; 16 g ai/ha) | Plant response rating, Ragweed ([17]; 62 g ai/ha)
30: Plant response rating, Foxtail, Green ([15]; 31 g ai/ha) | Plant response rating, Goosegrass ([20]; 16 g ai/ha)
